Assay results from patent US11851410B2, “Sensors for detection of negatively charged phosphate-containing membranes and membrane components” (THE GOVERNING COUNCIL OF THE UNIVERSITY OF TORONTO, priority 2017, dated 2023).

What was measured:
[1] = test system: negatively charged vesicles (PA, PS, PG, CL); assay: Vesicle fluorescence intensity experiments, all negatively charged vesicles; assay type: binding; details: sensor 25 μM; vesicles up to 200 μM; λex/em 350/476 nm
Experimental: (§1) Small Unilamellar Vesicles (SUVs) were prepared by the extrusion method. Appropriate amounts of lipid in the desired proportions were weighed out to create 10 mM liposome suspensions. The lipids were then dissolved in a minimum amount of chloroform and vortexed to ensure thorough mixing. The excess solvent was then dried off under a gentle stream of nitrogen and allowed to dry overnight in a vacuum dessicator to remove any remaining traces of solvent. The resulting lipid film was then hydrated with 2 mL of HEPES buffer (50 mM HEPES, pH 7.5) for 1 h. The sample was then subjected to five cycles of freeze-thaw-vortex, cycling between liquid nitrogen and a 60° C. water bath. The resulting suspension of multilamellar vesicles (MLVs) was then extruded 25 times through a 0.1 μm polycarbonate membrane installed in a mini-extruder (Avanti Polar Lipids, Alabaster, AL) to form SUV.
10 mM stock solutions of vesicles were diluted separately to 400 μM and 80 μM in pH 7.5, 50 mM HEPES buffer. […] The sensors were dissolved to a concentration of 50 μM (from 800 μM stock solutions in 100% DMSO) in 50 mM HEPES, pH 7.5, 10% DMSO buffer. […] Fluorescence intensities measured were used to calculate the following parameters: ΔFIexc, ΔΔFIexc, ΔFImon, ΔΔFImon, ΔΔFIexc/mon and ΔΔΔFI. The following equations were used for the calculations: […]
Of these, PC and PE represented the zwitterionic vesicles; PS (−1), PA (−1), PG (−1) and CL (−2) represented the negatively charged vesicles.
(§2) The fluorescence enhancement of the excimer (ΔFIexc) species in the presence of vesicles was calculated using equation 1, which is defined as the ratio of the emission intensities of the sensor-vesicle sample and the sensor alone.

[2] = test system: zwitterionic vesicles (PC, PE); assay: Vesicle fluorescence intensity experiments, zwitterionic vesicles; assay type: binding; details: sensor 25 μM; vesicles up to 200 μM; λex/em 350/476 nm
Experimental: as §1
10 mM stock solutions of vesicles were diluted separately to 400 μM and 80 μM in pH 7.5, 50 mM HEPES buffer. […] Fluorescence intensities measured were used to calculate the following parameters: ΔFIexc, ΔΔFIexc, ΔFImon, ΔΔFImon, ΔΔFIexc/mon and ΔΔΔFI. […]
as §2

[3] = test system: POPG (PG) negatively charged vesicles; assay: Serial dilution vesicle fluorescence intensity experiments, PG vesicles; assay type: binding; details: sensor 25 μM (PSVue™380 1 μM), 50 mM HEPES, 5% DMSO, pH 7.5
Excerpt: (§3) The following equations were used for the calculations: […]

[4] = test system: TOCL (CL) negatively charged vesicles; assay: Serial dilution vesicle fluorescence intensity experiments, CL vesicles; assay type: binding; design: ΔΔFI: unit not given here; details: for ΔΔFI: sensor 25 μM (PSVue™380 1 μM), 50 mM HEPES, 5% DMSO, pH 7.5
Excerpt: as §3

[5] = test system: Gram-positive bacteria (B. subtilis, B. megaterium, M. luteus, S. epidermidis); details: sensor 10 μM; λex/em 350/476 nm
Experimental: Bacteria samples were titrated from 10^8-10^10 cells/mL in a large-volume 12 well plate. Bacteria samples were added to black 384-well plates in triplicate.

[6] = test system: POPA (PA) negatively charged vesicles; assay: Serial dilution vesicle fluorescence intensity experiments, PA vesicles; assay type: binding; details: for ΔΔFI: PA vesicles, sensor 25 μM (PSVue™380 1 μM), 50 mM HEPES, 5% DMSO, pH 7.5
Excerpt: as §3

[7] = test system: POPE (PE) zwitterionic vesicles; assay: Serial dilution vesicle fluorescence intensity experiments, PE vesicles; assay type: binding; details: sensor 25 μM (PSVue™380 1 μM), 50 mM HEPES, 5% DMSO, pH 7.5
Excerpt: as §3

[8] = test system: DOPS (PS) negatively charged vesicles; assay: Serial dilution vesicle fluorescence intensity experiments, PS vesicles; assay type: binding; design: ΔΔFI: unit not given here; details: for ΔΔFI: sensor 25 μM (PSVue™380 1 μM), 50 mM HEPES, 5% DMSO, pH 7.5
Excerpt: as §3
It is estimated that a mammalian cell membrane is composed of 10% PS, with the majority located on the inner leaflet in the healthy state. However, during the early stages of apoptosis, this asymmetry is lost and PS becomes symmetrically distributed resulting in ˜5% of PS externalized to the outer leaflet. To address if compounds of this application could potentially be used for the detection of the PS externalization event during apoptosis, the exemplary sensors were screened against PC vesicles containing biologically-relevant levels of PS ([…]; assuming that approximately half of the lipid head groups will be exposed to the interior of the vesicle). The resulting ΔΔFI for vesicle concentrations up to 40 μM are presented in FIG. 7 and Table 1 (ΔΔFI for vesicle concentrations up to 200 μM is presented in FIG. 4).

[9] = test system: DOPS (PS) negatively charged vesicles; assay: as above; assay type: binding; design: ΔΔFI: unit not given here; details: for ΔΔFI: sensor 25 μM (PSVue™380 1 μM), 50 mM HEPES, 5% DMSO, pH 7.5; remark: listed apart in the source
[10] = test system: WT and mutant E. coli strains; assay: Bacteria mutant strain knockout fluorimetry, E. coli; assay type: cell-based; details: for effect of LPS kinase knockouts on fluorescence fold: E. coli ΔWaaP, ΔwaaG; for effect of cardiolipin synthase knockouts on fluorescence fold: E. coli ΔclsA, ΔclsB, ΔclsC
Excerpt: Fluorescence intensities were used to calculate the excimer emission in response to bacterial strains. Measurements were averaged over two triplicates.

[11] = test system: PA vesicles; assay: Zinc metalation fluorescence experiments; assay type: binding; details: for FIexc response to increasing PA vesicle concentrations, unmetallated: acid-treated glassware, chelex-treated buffers, non-normalized FIexc; for ability to detect PA vesicles in the absence of Zn^2+ (ΔFI): unmetallated sensors, PA vesicles 0-200 μM
Experimental: Vesicle fluorescence intensity experiments were performed in the absence or presence of zinc(II) (trifluoromethanesulfonate salt). Unmetallated PSVue™380 (PSVue™380*) was also included for reference.
All glassware was treated with 0.1 M HCl overnight, rinsed three times with MilliQ water, and oven dried. […] The sensor-zinc solutions were then combined with PA vesicles, prepared as described above, incubated as described above and the fluorescence emission intensity was then measured as described above.
In an effort to eliminate this possibility, all glassware was acid-treated and all buffers were chelex-treated to remove any metals, and the screens were repeated with PA vesicles. For these experiments, original non-normalized FIexc values were analyzed.

[12] = cited from earlier work
[13] = test system: E. coli K-12 BW25113 cells in presence of MV4-11 cells; assay: Fluorescence microscopy experiments with bacteria and mammalian cells; assay type: cell-based; details: 10^8 cells/mL E. coli; sensor 40 μM
Experimental: MV4-11 mammalian cells and bacteria samples were both added to a microscope chamber slide and left to incubate for 5 minutes. Visualization was performed first in bright field and then auto-fluorescence was recorded with UV excitation. Sensors were then added into the chamber at appropriate concentrations and fluorescence emission was captured.

[14] = 33% CL vesicles, 20 μM vesicles
[15] = CL vesicles (50%), 5 μM vesicles
[16] = CL vesicles (50%), 20 μM vesicles
[17] = 25% PS vesicles, 20 μM vesicles
[18] = 75% PS vesicles, 20 μM vesicles
[19] = PS vesicles (50%), 5 μM vesicles
[20] = PS vesicles (50%), 20 μM vesicles

SMILES	ΔΔFI ([3]; 5 μM vesicles)	ΔΔFI ([3]; 20 μM vesicles)	ΔΔFI ([4]; 33% CL vesicles, 5 μM vesicles)	ΔΔFI [4, 14]	ΔΔFI [4, 15]	ΔΔFI [4, 16]	ΔΔFI ([6]; 5 μM vesicles)	ΔΔFI ([6]; 20 μM vesicles)	ΔΔFI ([7]; 5 μM vesicles)	ΔΔFI ([7]; 20 μM vesicles)	ΔΔFI ([8]; 5% PS vesicles, 5 μM vesicles)	ΔΔFI ([8]; 5% PS vesicles, 20 μM vesicles)	ΔΔFI ([8]; 25% PS vesicles, 5 μM vesicles)	ΔΔFI [8, 17]	ΔΔFI ([9]; 75% PS vesicles, 5 μM vesicles)	ΔΔFI [9, 18]	ΔΔFI [9, 19]	ΔΔFI [9, 20]	other results
O=C(CCCCc1ccc2ccc3cccc4ccc1c2c34)NCCNC(=O)c1ccc(CN(Cc2ccccn2)CC(O)CN(Cc2ccccn2)Cc2ccccn2)nc1 (stereo not shown) [I-12]																			ΔFIexc for all negatively charged vesicles [1]: ≥ 20; ΔFIexc for negatively charged vesicles, highest value (up to) [1]: ~80; ΔFIexc for zwitterionic vesicles [2]: ≤ 2
c1cc2ccc3ccc(CCCCN4CCCNCCNCCCNCC4)c4ccc(c1)c2c34 [I-4]	3.4	7.7	3.9	9.2	5.9	16.3	7.3	21.7	1	1.3	2.2	3.9	2.9	5.6	7.1	16.7	4.5	10.3	sensitivity compared to PSVue™380, 20 μM CL vesicles [4]: comparable; detection of Gram-positive bacteria with a fluorometer in bulk solution [5]: can detect Gram-positive bacteria; sensing PA compared to PSVue™380 ([6]; Table 1 comparison): superior; detection of PC vesicles containing 5 and 25% PS ([8]; 5 and 25% PS, corresponding to 2.5 and 12.5% of PS exposed to solution): efficiently detected; sensitivity compared to PSVue™380, 5 μM PS vesicles ([9]; 5 μM PS vesicles): comparable
c1ccc(CN(CCCCc2ccc3ccc4cccc5ccc2c3c45)Cc2ccccn2)nc1 [I-6]	1.8	2.7	1.9	3.1	2.7	4.3	4.4	6.9	1	1	1.6	2.4	2.1	3	4.5	7.5	2.9	4.8	
c1cc2ccc3ccc(CCCCN4CCNCCNCCNCC4)c4ccc(c1)c2c34 [I-2]	2.5	5.5	3	7.2	4.4	12	4.3	12.3	1.1	1.6	1.6	3.1	1.8	4.3	4.2	11.7	2.8	7.6	
c1ccc(CN(Cc2ccccn2)Cc2ccc3ccc4cccc5ccc2c3c45)nc1 [II-5, 1-(pyren-1-yl)-N, N-bis(pyridin-2-ylmethyl)methanamine]																			effect of LPS kinase knockouts on fluorescence fold [10]: little to no change; effect of cardiolipin synthase knockouts on fluorescence fold [10]: greatest effect; FIexc response to increasing PA vesicle concentrations, unmetallated [11]: did not respond; ability to detect PA vesicles in the absence of Zn^2+ (ΔFI) [11]: lost their ability to sense PA
c1ccc(CNCc2ccccn2)nc1 [DPA]																			pKa [12]: 2.60; pKa (first given) [12]: 7.30; pKa (third printed) [12]: 1.12
c1ccc(CN(Cc2ccccn2)Cc2ccc3ccc4cccc5ccc2c3c45)nc1 [I-5]	1.7	3.9	2.5	7.9	5	15.9	4.4	14.1	0.9	1	1.4	2.6	1.9	4	5.4	16.7	2.9	8.8	sensitivity compared to PSVue™380, 20 μM CL vesicles [4]: comparable; detection of bacterial cells versus mammalian MV4-11 cells by microscopy [13]: bacterial cells are detected more readily than mammalian MV4-11 cells
c1cc2ccc3ccc(CN4CCNCCNCCNCC4)c4ccc(c1)c2c34 [II-1, 1-(pyren-1-ylmethyl)-1,4,7,10-tetraazacyclododecane]																			ΔFI of unmetallated sensor versus metallated counterpart ([11]; PA vesicles): outperformed its metallated counterpart; FIexc response to increasing PA vesicle concentrations, unmetallated [11]: comparable responses; ability to detect PA vesicles in the absence of Zn^2+ (ΔFI) [11]: retained their ability to detect PA
c1cc2ccc3ccc(CN4CCCNCCNCCCNCC4)c4ccc(c1)c2c34 [II-3, 1-(pyren-1-ylmethyl)-1,4,8,11-tetraazacyclotetradecane]																			effect of LPS kinase knockouts on fluorescence fold [10]: little to no change; effect of cardiolipin synthase knockouts on fluorescence fold [10]: greatest effect
